The text below walks through data of US20250186442A1, “Obicetrapib and Ezetimibe Combination Treatment and Fixed Dose Pharmaceutical Compositions” (NewAmsterdam Pharma B.V., priority 2022, published 2025).

Data set [1] is described as follows: ROSE2 phase 2b clinical trial - safety and tolerability (adverse events). Particulars: Safety Population. The class given is in vivo, human. The method, then: (§1) The exploratory objectives of this study include the following: • To evaluate the effect of obicetrapib 10 mg+ezetimibe 10 mg combination therapy and obicetrapib 10 mg monotherapy, when used as an adjunct to high-intensity statin therapy, on non-high-density lipoprotein cholesterol (non-HDL-C), very low-density lipoprotein cholesterol (VLDL-C), HDL-C, TG, ApoE, Lp(a), and HDL-ApoE at Day 84; • To evaluate the effect of obicetrapib 10 mg+ezetimibe 10 mg combination therapy and obicetrapib 10 mg monotherapy, when used as an adjunct to high-intensity statin therapy, on the proportion of participants achieving predefined LDL-C targets at Day 84; • To assess the mean trough plasma levels of obicetrapib 10 mg+ezetimibe 10 mg combination therapy and obicetrapib 10 mg monotherapy at steady state on Days 28, 84, and 112; and • To evaluate the safety and tolerability profiles of obicetrapib 10 mg+ezetimibe 10 mg combination therapy and obicetrapib 10 mg monotherapy, when used as an adjunct to high-intensity statin therapy, assessed by clinical laboratory values and incidence of AEs.
The safety and tolerability profile of obicetrapib 10 mg, both in combination with ezetimibe 10 mg and as monotherapy, will be assessed by clinical laboratory assessments (chemistry and hematology), vital signs, physical examinations, and the incidence of AEs.
An AE can therefore be any unfavorable and/or unintended sign (including an abnormal laboratory finding), symptom, or disease temporally associated with the use of an investigational medicinal product, whether or not related to the investigational medicinal product. All AEs, including observed or volunteered problems, complaints, or symptoms, are to be recorded on the appropriate eCRF.
AEs, which include clinical laboratory assessment variables, will be monitored and documented from the time of first dose of study treatment until completion of Visit 5. Participants should be instructed to report any AE that they experience to the Investigator, whether or not they think the event is due to study drug. Beginning at the date of the first dose of study treatment, Investigators should make an assessment for AEs at each visit and record the event on the appropriate AE eCRF.
The Investigator will assess the severity (intensity) of each AE as mild, moderate, or severe, and will also categorize each AE as to its potential relationship to study drug using the categories of yes or no.
• Mild—An event that is easily tolerated and generally not interfering with normal daily activities. • Moderate—An event that is sufficiently discomforting to interfere with normal daily activities. • Severe—An event that is incapacitating with inability to work or perform normal daily activities.
An AE or adverse reaction is considered serious if, in the view of either the Investigator or Sponsor, it results in any of the following outcomes: • Death; • A life-threatening AE;
The Safety Population will include all participants who receive at least 1 dose of any study drug. Treatment classification will be based on the actual treatment received. The Safety Population will be the primary population used for the safety analyses.

For a further data set, the system named is Lp(a). The data set can be described thus: ROSE2 phase 2b clinical trial - Lp(a). Type of data set: in vivo, human. Particulars: Exploratory Population. As for the experimental part: as §1
This study will be a placebo-controlled, double-blind, randomized, Phase 2 study to evaluate the efficacy, safety, and tolerability of obicetrapib 10 mg, both in combination with ezetimibe 10 mg and as monotherapy, as an adjunct to high-intensity statin therapy. This study will take place at approximately 20 sites in the United States.
Up to 2 weeks after the Screening Visit, participants will return to the site on Day 1 (Visit 2) and confirm study eligibility before being randomized and beginning treatment. Approximately 114 eligible participants (38 participants per treatment group) will be randomized in a 1:1:1 ratio to 1 of the following treatment groups: • Combination therapy: Obicetrapib 10 mg+ezetimibe 10 mg (administered as one 10 mg obicetrapib tablet and one 10 mg ezetimibe capsule); • Obicetrapib monotherapy: Obicetrapib 10 mg (administered as one 10 mg obicetrapib tablet and 1 placebo capsule); or • Placebo (administered as 1 placebo tablet and 1 placebo capsule).
The exploratory efficacy endpoints include the following: • Percent change from Day 1 to Day 84 in non-HDL-C, VLDL-C, HDL-C, TG, ApoE, Lp(a), and HDL-ApoE for the obicetrapib 10 mg+ezetimibe 10 mg combination treatment group compared with the placebo group and for the obicetrapib 10 mg monotherapy treatment group compared with the placebo group; and • Proportion of participants at Day 84 that achieve LDL-C<2.6 mmol/L (<100 mg/dL), LDL-C<1.8 mmol/L (<70 mg/dL), and LDL-C<1.3 mmol/L (<50 mg/dL) for the obicetrapib 10 mg+ezetimibe 10 mg combination treatment group compared with the placebo group and for the obicetrapib 10 mg monotherapy treatment group compared with the placebo group.
Blood samples for the lipid profile must be obtained under fasting conditions (ie, after the participant has fasted for approximately 10 hours). For the purposes of this study, fasting will be defined as nothing by mouth except water and any essential medications. If a participant is not fasting, the Investigator should reschedule the visit as soon as possible. LDL-C level will be calculated using the Friedewald equation unless TG≥400 mg/dL or LDL-C≤50 mg/dL; in both cases, LDL-C level will be measured directly by preparative ultracentrifugation, also referred to as beta quantification. Additionally, LDL-C will be measured by preparative ultracentrifugation, also referred to as beta quantification, at baseline (Visit 2) and at the end of the 12-week Treatment Period (Visit 4) for all participants.
The Modified ITT (mITT) Population will include all participants in the ITT Population who receive at least 1 dose of any study drug and have a baseline value for the LDL-C assessment. […]

The nature of data set [2]: Kinetic solubility in FaSSIF (pH 6.5) at 37° C. The class given is physicochemical. The note with it: FaSSIF pH 6.5, 37° C., as obicetrapib free acid. An excerpt: (§2) The amorphous form has a higher kinetic solubility and dissolution rate than the crystalline form (and by extension obicetrapib itself). Both crystalline and amorphous obicetrapib hemicalcium kinetic solubility determinations were made in biorelevant media at different pHs, namely at about 5.0 (FeSSIF conditions) and at pH of about 6.5 (FaSSIF) conditions as set forth in Example 11.28.
The concentrations in Table X are those of obicetrapib (i.e., the free acid).
(§3) The solids were magnetically stirred at 600 RPM in a shaker bath and samples were drawn with a 1.0 ml syringe at T=15 mins, 30 mins, 60 mins, 90 mins and 120 mins. The solubility was measured using HPLC method provided by the client. The compound was added to 4.0 ml glass vials at approximately 20.0 mg/ml. Samples were agitated with a vortex mixer for about 5 minutes to ensure the presence of undissolved excess powder. The sample collected at each time point was centrifuged at 1200 RPM, filtered with 0.45 μm Polytetrafluoroethylene (PTFE) filters and diluted with methanol before HPLC analysis. In order to minimize the effect of potential analyte adsorption on the filter, the initial 0.5 mL of supernatant passing through the filter was discarded prior to collecting sample for HPLC analysis.

Data set [3] in a line: Kinetic solubility in FeSSIF (pH 5.0) at 37° C. Type of data set: physicochemical. The note with it: FeSSIF pH 5.0, 37° C., as obicetrapib free acid.
Description: as §2
The concentrations in Table W are those of obicetrapib (i.e., the free acid).
as §3

As for `CCOC(=O)N1c2ccc(C(F)(F)F)cc2[C@@H](N(Cc2cc(C(F)(F)F)cc(C(F)(F)F)c2)c2ncc(OCCCC(=O)O)cn2)C[C@H]1CC` [Obicetrapib 10 mg], in data set [1] ((%)), the “Any TEAEs by maximum severity: Mild, (%)” value is recorded as “(20.5) %”; the “Any TEAEs by maximum severity: Moderate, (%)” value is “(7.7) %”; the “Any TEAEs by maximum severity: Severe, (%)” value is “(10.3) %”; the “Any TEAEs leading to death, (%)” value is given as “(0.0) %”. In data set [1] ((%)), the “Any serious TEAEs (TESAEs), (%)” value is “(5.1) %”; the “Any study drug-related TEAEs by maximum severity: Mild, (%)” value is on record as “(10.3) %”; the “Any study drug-related TEAEs by maximum severity: Moderate, (%)” value is “(5.1) %”; the “Any study drug-related TEAEs by maximum severity: Severe, (%)” value is listed as “(5.1) %”. In data set [1] ((%)), the “Any study drug-related TEAEs leading to discontinuation of study drug, (%)” value is on record as “(5.1) %”; the “Any study drug-related TEAEs, (%)” value is on record as “(2.6) %”; the “Any study drug-related TESAEs, (%)” value was “(2.6) %”; the “Any treatment-emergent AEs (TEAEs), (%)” value is reported as “(20.5) %”. The “Any TEAEs leading to discontinuation of study drug, (%)” value in data set [1] ((%), first line with this label (r25)) is reported as “(0.0) %”. In data set [1] ((%), last line of the table (r40)), the “Any TEAEs leading to discontinuation of study drug, (%)” value was “(0.0) %”. Also, in data set [1] (column e), the “Any TEAEs by maximum severity: Mild, e” value worked out at 20; the “Any TEAEs leading to death, e” value was 0; the “Any serious TEAEs (TESAEs), e” value stood at 2; the “Any study drug-related TEAEs by maximum severity: Mild, e” value is 4. Besides, in data set [1] (column e), the “Any study drug-related TEAEs leading to discontinuation of study drug, e” value is given as 5; the “Any study drug-related TESAEs, e” value is on record as 1; the “Any treatment-emergent AEs (TEAEs), e” value came to 20. In addition, in data set [1] (column e, last line of the table (r40)), the “Any TEAEs leading to discontinuation of study drug, e” value is recorded as 0. Further, in the data set with Lp(a) (Day 84), the “Lp(a) Day 84, Mean” value came to 74.75 nmol/L; the “Lp(a) Day 84, Median” value is reported as 20.85 nmol/L; the “Lp(a) Day 84 Maximum” value came out at 327.7 nmol/L; the “Lp(a) Day 84 Minimum” value worked out at 2.8 nmol/L. Moreover, in the data set on Lp(a), the “Lp(a) Change from Baseline to Day 84, Mean” value was -27.66 nmol/L; the “Lp(a) Change from Baseline to Day 84, Median” value was -10.95 nmol/L; the “Lp(a) Change from Baseline to Day 84 Maximum” value was 3.0 nmol/L; the “Lp(a) Change from Baseline to Day 84 Minimum” value was -148.8 nmol/L. Moreover, in the data set with Lp(a), the “Lp(a) Percent Change from Baseline to Day 84 (%) Maximum” value is 103.4%; the “Lp(a) Percent Change from Baseline to Day 84 (%) Minimum” value is −84.6%; the “Lp(a) Percent Change from Baseline to Day 84 (%), Mean” value is reported as −24.44%; the “Lp(a) Percent Change from Baseline to Day 84 (%), Median” value was −22.75%.
For `CCOC(=O)N1c2ccc(C(F)(F)F)cc2[C@@H](N(Cc2cc(C(F)(F)F)cc(C(F)(F)F)c2)c2ncc(OCCCC(=O)[O-])cn2)C[C@H]1CC.CCOC(=O)N1c2ccc(C(F)(F)F)cc2[C@@H](N(Cc2cc(C(F)(F)F)cc(C(F)(F)F)c2)c2ncc(OCCCC(=O)[O-])cn2)C[C@H]1CC.[Ca+2]` [Amorphous obicetrapib hemicalcium Batch #2], the “Concentration in Solution” value in data set [2] (15 mins) turned out to be 90 µg/mL; in data set [2] (30 mins) it was 140 µg/mL; in data set [2] (60 mins), 229 µg/mL; in data set [2] (90 mins), 293 µg/mL; in data set [2] (120 mins) it was 387 µg/mL; in data set [3] (15 mins), 502 µg/mL. Moreover, the “Concentration in Solution” value came to 618 µg/mL in data set [3] (30 mins), 628 µg/mL in data set [3] (60 mins), 658 µg/mL in data set [3] (90 mins) and 642 µg/mL in data set [3] (120 mins).
Regarding `CCOC(=O)N1c2ccc(C(F)(F)F)cc2[C@@H](N(Cc2cc(C(F)(F)F)cc(C(F)(F)F)c2)c2ncc(OCCCC(=O)[O-])cn2)C[C@H]1CC.CCOC(=O)N1c2ccc(C(F)(F)F)cc2[C@@H](N(Cc2cc(C(F)(F)F)cc(C(F)(F)F)c2)c2ncc(OCCCC(=O)[O-])cn2)C[C@H]1CC.[Ca+2]` [Amorphous obicetrapib hemicalcium Batch #1], the “Concentration in Solution” value stood at 60 µg/mL in data set [2] (15 mins); 99 µg/mL in data set [2] (30 mins); 163 µg/mL in data set [2] (60 mins); 201 µg/mL in data set [2] (90 mins); 244 µg/mL in data set [2] (120 mins); 520 µg/mL in data set [3] (15 mins). Also, the “Concentration in Solution” value in data set [3] (30 mins) worked out at 661 µg/mL; in data set [3] (60 mins), 675 µg/mL; in data set [3] (90 mins), 696 µg/mL; in data set [3] (120 mins), 675 µg/mL.
